According to patent US11999758B2, “Inhibitors of the YAP/TAZ-TEAD interaction and their use in the treatment of cancer” (INVENTIVA, priority 2018, dated 2024):
Structures can show the parent of a compound that is named as a salt.

Molecular target: T1, YAP-TEAD interaction (Homo sapiens, UniProt P28347)
T1 construct: expressed in transfected cells; host or cells: HEK293 GripTite 293 MSR (Invitrogen R795-07)
Assay: Cell-based TEAD-GAL4 transactivation assay (luciferase reporter)
Conditions: HEK293 cells transfected with TEAD1-Gal4, YAP mutant (S127A, S397A) and luciferase reporter, compounds 0.1 μM to 30 μM; for Emax: HEK293, 24 h, read-out: TEAD-GAL4 Transactivation activity Max Act; for IC50: 24 h
Experimental: To identify inhibitors of YAP-TEAD interaction, a transient transactivation assay was carried out on HEK293 cell line (HEK293 GripTite™ 293 MSR (Invitrogen R795-07)) using plasmids containing the full length TEAD1 sequences, the full length YAP mutant (S127A, S397A) and a luciferase gene reporter. All expression constructs were performed into a pSG5 backbone plasmid in which the SV40 promoter was replaced by the CMV promoter. The TEAD1 construct was prepared by cloning the full-length human TEAD1 cDNA in fusion with the Gal4 DNA Binding Domain (AA 1-148) into pSG5_CMV to create the TEAD1 (FL)_hum_pSG5Gal4_CMV. The full-length YAP mutant (S127A, S397A) was also cloned into pSG5_CMV to create the YAP (FL)_hum_pSG5_mutS127A_S397A_CMV. The reporter plasmid GAL4(5×RE)_TK(−105/+56)_pGL3-Basic contains 5 copies of the GAL4 responsive element (5′-TCGGAGGACAGTACTCC-3′) upstream of the thymidine kinase (TK) promoter (−105/+56) inserted in a pGL3-Basic vector. To evaluate the selectivity of our compounds in blocking the YAP-TEAD interaction, a counter-screening protein-protein interaction transactivation assay was also established. Briefly, two other expression plasmids, the pBD-P53 which expresses the P53 (AA 72-390) in fusion with Gal4 and the pAD-SV40T which expresses the SV40 large T antigen (AA 84-708,AgT), were created. HEK293 cells were seeded at 5×10^4 cells/well in 96 well plates (assay plates) in DMEM medium containing 4.5 g/L D-glucose, 10% high inactivated (HI) fetal bovine serum 1% Glutamax, 1% non-essential amino acid and 1% sodium pyruvate and 0.5% penicillin/streptomycin at 37° C. in a humidified atmosphere of 8% CO2. After 24 h, transfections were performed using Jet-PEI as transfectant (101B-010 Polyplus Transfection), according to the instructions of the manufacturer (N/P=10) and a ratio YAP/TEAD=10 (per well: 50 ng of YAP(FL), 5 ng of TEAD(FL) and 50 ng of reporter plasmid). Six hours after cell transfection, the plates (‘assay plate’) were washed with 100 μl PBS per well and cells were treated with compounds in semi-log from 0.1 μM to 30 μM or DMSO 0.5% as control in DMEM, 4.5 g/L D-Glucose without phenol red, 0.3% BSA, 1% glutamax, 1% NEAA, 1% sodium pyruvate. 24 h later, the luciferase activity was determined after addition of 100 μl of Steady Glo™ luciferase assay system (Promega E2550) according to the manufacturer's directions. Luciferase activity in cell extracts was measured by reading luminescence using the Envision device.
The cellular response was determined by fitting the concentration response curves using a 3-parameter curve fit equation and determining the concentration that inhibited the luciferase activity by 50%.

T1 sequence (P28347 whole entry): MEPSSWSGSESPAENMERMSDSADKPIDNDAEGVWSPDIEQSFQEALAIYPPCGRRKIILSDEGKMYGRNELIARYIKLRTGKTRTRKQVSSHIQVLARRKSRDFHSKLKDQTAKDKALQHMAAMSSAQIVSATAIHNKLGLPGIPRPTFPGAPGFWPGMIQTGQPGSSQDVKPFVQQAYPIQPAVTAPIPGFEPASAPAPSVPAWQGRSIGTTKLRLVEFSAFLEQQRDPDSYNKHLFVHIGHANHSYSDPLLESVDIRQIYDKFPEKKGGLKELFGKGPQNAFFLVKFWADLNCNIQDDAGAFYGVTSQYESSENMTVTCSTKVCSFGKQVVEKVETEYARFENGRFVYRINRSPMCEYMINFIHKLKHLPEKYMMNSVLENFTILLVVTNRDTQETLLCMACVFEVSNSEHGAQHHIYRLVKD

SMILES | Emax [%] | IC50 [nM]
COc1cc(/C=N/N(CC(C)C)c2ncnc3cc(F)ccc23)ccc1B(O)O [Ex 18, [4-[(E)-[(7-fluoroquinazolin-4-yl)-isobutyl-hydrazono]methyl]-2-methoxyphenyl] boronic acid] | 80 | 2180
COc1cc(OC)c2c(c1)C(N(CC(C)C)/N=C/c1ccc(B(O)O)c(OC)c1)=NS2(=O)=O [Ex 3, [4-[(E)-[(5,7-dimethoxy-1,1-dioxo-1,2-benzothiazol-3-yl)-isobutyl-hydrazono]methyl]-2-methoxy-phenyl]boronic acid] | 89 | 2610
COCCOc1ccc2c(c1)C(N(CC(C)C)/N=C/c1ccc(B(O)O)c(OC)c1)=NS2(=O)=O [Ex 9, [4-[(E)-[isobutyl-[5-(2-methoxyethoxy)-1,1-dioxo-1,2-benzothiazol-3-yl]hydrazono]methyl]-2-methoxy-phenyl]boronic acid] | 98 | 2330
COc1cc(C2=NN(C3=NS(=O)(=O)c4ccccc43)CC(C)(C)C2)ccc1B(O)O [Ex 57, [4-[2-(1,1-dioxo-1,2-benzothiazol-3-yl)-4,4-dimethyl-3,5-dihydro-pyridazin-6-yl]-2-methoxy-phenyl]boronic acid] | 84 | 3060
CCN(/N=C/c1ccc2c(c1)COB2O)c1ncnc2c(C(=O)N(C)C)csc12 [Ex113, 4-[ethyl-[(E)-(1-hydroxy-3H-2,1-benzoxaborol-5-yl)methyleneamino]-amino]-N,N-dimethyl-thieno[3,2-d]pyrimidine-7-carboxamide] | 70 | 5210
COc1cc(/C=N/N(CC(C)C)c2ncnc3c(OC)cccc23)ccc1B(O)O [Ex 13, [4-[(E)-[isobutyl-(8-methoxyquinazolin-4-yl)hydrazono]methyl]-2-methoxy-phenyl] boronic acid] | 95 | 5780
Cc1ccc2c(c1)C(N(C)/N=C/c1ccc3c(c1)COB3O)=NS2(=O)=O [Ex 36, N-[(E)-(1-hydroxy-3H-2,1-benzoxaborol-5-yl)methyleneamino]-N,5-dimethyl-1,1-dioxo-1,2-benzothiazol-3-amine] | 60 | –
COc1ccc2ncnc(N(CC(C)C)/N=C/c3ccc(B(O)O)c(OC)c3)c2c1 [Ex 19, [4-[(E)-[isobutyl-(6-methoxyquinazolin-4-yl)hydrazono]methyl]-2-methoxyphenyl] boronic acid] | 97 | 3360
COc1cc(/C=N/N(C)c2ncnc3c(OC)cccc23)ccc1B(O)O [Ex 22, [2-methoxy-4-[(E)-[(8-methoxyquinazolin-4-yl)-methyl-hydrazono]-methyl]phenyl]boronic acid] | 97 | 2570
COc1cc(/C=N/N(CC(C)C)c2ncnc3c(C)csc23)ccc1B(O)O [Ex67, [4-[(E)-[isobutyl-(7-methylthieno[3,2-d]pyrimidin-4-yl)hydrazono]methyl]-2-methoxy-phenyl]boronic acid] | 89 | 3820
COCCN(/N=C/c1ccc(B(O)O)c(OC)c1)C1=NS(=O)(=O)c2ccccc21 [Ex 5, [4-[(E)-[(1,1-dioxo-1,2-benzothiazol-3-yl)-(2-methoxyethyl)-hydrazono]methyl]-2-methoxy-phenyl]boronic acid] | 67 | 7100
CCC(C)N(/N=C/c1ccc(B(O)O)c(OC)c1)C1=NS(=O)(=O)c2ccccc21 (stereo not shown) [Ex 16, [4-[(E)-[(1,1-dioxo-1,2-benzothiazol-3-yl)-sec-butyl-hydrazono]methyl]-2-methoxyphenyl]boronic acid] | 76 | 4160
COCCCN(/N=C/c1ccc2c(c1)COB2O)C1=NS(=O)(=O)c2ccccc21 [Ex 25, N-[(E)-(1-hydroxy-3H-2,1-benzoxaborol-5-yl)methyleneamino]-N-(3-methoxypropyl)-1,1-dioxo-1,2-benzothiazol-3-amine] | 78 | 2780
COc1cc(/C=N/N(C)c2cc(C)cnn2)ccc1B(O)O [Ex 59, [2-methoxy-4-[(E)-[methyl-(5-methylpyridazin-3-yl)hydrazono]methyl]-phenyl] boronic acid] | 71 | –
COc1cnnc(N(C)/N=C/c2ccc3c(c2)COB3O)c1 [Ex 60, N-[(E)-(1-hydroxy-3H-2,1-benzoxaborol-5-yl)methyleneamino]-5-methoxy-N-methyl-pyridazin-3-amine] | 79 | 5000
COc1cc(OC)c2ncnc(N(CC(C)C)/N=C/c3ccc(B(O)O)c(OC)c3)c2c1 [Ex 17, [4-[(E)-[(6,8-dimethoxyquinazolin-4-yl)-isobutyl-hydrazono]methyl]-2-methoxyphenyl]boronic acid] | 98 | 7740
COc1cc(/C=N/N(CC(C)C)c2nc(C)nc3ccsc23)ccc1B(O)O [Ex68, [4-[(E)-[isobutyl-(2-methylthieno[3,2-d]pyrimidin-4-yl)hydrazono]methyl]-2-methoxy-phenyl]boronic acid] | 84 | 2630
COc1ccc2c(c1)C(N(C)/N=C/c1ccc3c(c1)COB3O)=NS2(=O)=O [Ex 37, N-[(E)-(1-hydroxy-3H-2,1-benzoxaborol-5-yl)methyleneamino]-5-methoxy-N-methyl-1,1-dioxo-1,2-benzothiazol-3-amine] | 92 | 4550

Next, values leading:

Emax [%] | IC50 [nM] | SMILES
87 | 2150 | CCN(/N=C/c1ccc(B(O)O)c(OC)c1)c1ncnc2c1ccn2C [Ex66, [4-[(E)-[ethyl-(7-methylpyrrolo[2,3-d]pyrimidin-4-yl)hydrazono]methyl]-2-methoxy-phenyl]boronic acid]
84 | 1000 | COc1cccc2c(N3N=C(c4ccc5c(c4)COB5O)CCC3C)ncnc12 (stereo not shown) [Ex 56, 4-[6-(1-hydroxy-3H-2,1-benzoxaborol-5-yl)-3-methyl-4,5-dihydro-3H-pyridazin-2-yl]-8-methoxy-quinazoline]
63 | 1020 | CCN(/N=C/c1ccc2c(c1)COB2O)c1nc(C)nc2ccsc12 [Ex 45, N-ethyl-N-[(E)-(1-hydroxy-3H-2,1-benzoxaborol-5-yl)methyleneamino]-2-methyl-thieno[3,2-d]pyrimidin-4-amine]
81 | 650 | CCN(/N=C/c1ccc2c(c1)COB2O)c1ncnc2[nH]ncc12 [Ex86, N-ethyl-N-[(E)-(1-hydroxy-3H-2,1-benzoxaborol-5-yl)methyleneamino]-1H-pyrazolo[3,4-d]pyrimidin-4-amine]
86 | 1650 | CN(/N=C/c1ccc2c(c1)COB2O)c1ncnc2c1[nH]c(=O)n2C1CC(O)C1 (stereo not shown) [Ex109, 6-[[(E)-(1-hydroxy-3H-2,1-benzoxaborol-5-yl)methyleneamino]-methyl-amino]-9-(3-hydroxycyclobutyl)-7H-purin-8-one hydrochloride]
70 | 1660 | COc1cc(C2=NN(C3=NS(=O)(=O)c4ccccc43)C(C)CC2)ccc1B(O)O (stereo not shown) [Ex 52, [4-[2-(1,1-dioxo-1,2-benzothiazol-3-yl)-3-methyl-4,5-dihydro-3H-pyridazin-6-yl]-2-methoxy-phenyl]boronic acid]
94 | 900 | CN(/N=C/c1ccc2c(c1)COB2O)c1ncnc2c1CCO2 [Ex101, N-[(E)-(1-hydroxy-3H-2,1-benzoxaborol-5-yl)methyleneamino]-N-methyl-5,6-dihydrofuro[2,3-d]pyrimidin-4-amine]
83 | 1580 | CN(/N=C/c1ccc2c(c1)COB2O)c1ncnc2c1CC(=O)N2C1CCC1 [Ex111, 7-cyclobutyl-4-[[(E)-(1-hydroxy-3H-2,1-benzoxaborol-5-yl)methyleneamino]-methyl-amino]-5H-pyrrolo[2,3-d]pyrimidin-6-one]
92 | 1980 | CCN(/N=C/c1ccc(B(O)O)c(OC)c1)c1ncnc2occc12 [Ex65, [4-[(E)-[ethyl(furo[2,3-d]pyrimidin-4-yl)hydrazono]methyl]-2-methoxy-phenyl]boronic acid]
